Source: PubChem BioAssay (NCI)
“And” between values parts separate entries of the source, which are not always exact repeats. Identical values can stand only once.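 In this assay, cells in 96-well plates receive the compound at five concentrations for 48 hours. Endpoints are linearly interpolated between the surrounding concentrations. Here, GI50 denotes the concentration required for 50% inhibition of growth. TGI: concentration producing complete growth inhibition.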

What was measured:
Assay in all cases: NCI-60 cell line screen, 48 h
[1] = system: NCI/ADR-RES ovarian
[2] = system: LOX IMVI melanoma
[3] = system: M14 melanoma
[4] = system: MALME-3M melanoma
[5] = system: SK-MEL-5 melanoma
[6] = system: SK-MEL-28 melanoma
[7] = system: COLO 205 colon
[8] = system: OVCAR-3 ovarian
[9] = system: CCRF-CEM leukemia
[10] = system: OVCAR-8 ovarian
[11] = system: EKVX NSCLC
[12] = system: BT-549 breast
[13] = system: HCT-116 colon
[14] = system: UO-31 renal
[15] = system: MDA-MB-231 breast
[16] = system: OVCAR-4 ovarian
[17] = system: SK-MEL-2 melanoma
[18] = system: MOLT-4 leukemia
[19] = system: SNB-75 CNS
[20] = system: NCI-H226 lung
[21] = system: HCC-2998 colon
[22] = system: SF-539 CNS
[23] = system: T-47D breast
[24] = system: NCI-H23 lung
[25] = system: HCT-15 colon
[26] = system: A549 NSCLC
[27] = system: SF-268 CNS
[28] = system: PC-3 prostate
[29] = system: TK-10 renal
[30] = system: SF-295 CNS
[31] = system: DU-145 prostate
[32] = system: CAKI-1 renal
[33] = system: NCI-H460 lung
[34] = system: HOP-62 NSCLC
[35] = system: SW-620 colon
[36] = system: UACC-62 melanoma
[37] = system: SN12C renal
[38] = system: OVCAR-5 ovarian
[39] = system: HT29 colon
[40] = system: NCI-H522 lung
[41] = system: HOP-92 NSCLC
[42] = system: A498 renal
[43] = system: HS 578T breast
[44] = system: 786-0 renal
[45] = system: KM12 colon
[46] = system: UACC-257 melanoma
[47] = system: IGROV1 ovarian
[48] = system: K-562 leukemia
[49] = system: HL-60(TB) leukemia
[50] = system: U251 CNS
[51] = system: MCF7 breast
[52] = system: RPMI-8226 leukemia
[53] = system: SNB-19 CNS
[54] = system: SK-OV-3 ovarian
[55] = system: ACHN renal

COc1ccc(/C=N/NC(=O)Cn2c(-c3ccc(S(C)(=O)=O)cc3)nc3cc(Cl)ccc32)cc1
GI50 [1]: 956 nM | TGI [1]: > 50000 nM | GI50 [2]: 1400 nM | TGI [2]: > 50000 nM | GI50 [3]: 505 nM | TGI [3]: > 50000 nM | GI50 [4]: 2300 nM | TGI [4]: 46400 nM | GI50 [5]: 964 nM | TGI [5]: 8550 nM | GI50 [6]: 4480 nM | TGI [6]: > 50000 nM | GI50 [7]: 907 nM | TGI [7]: 2420 nM | GI50 [8]: 367 nM | TGI [8]: > 50000 nM | GI50 [9]: 318 nM | TGI [9]: > 50000 nM | GI50 [10]: 1790 nM | TGI [10]: > 50000 nM | GI50 [11]: 2510 nM | TGI [11]: > 50000 nM | GI50 [12]: 2740 nM | TGI [12]: 48500 nM | GI50 [13]: 445 nM | TGI [13]: > 50000 nM | GI50 [14]: 3450 nM | TGI [14]: > 50000 nM | GI50 [15]: 2480 nM | TGI [15]: > 50000 nM | GI50 [16]: 2530 nM | TGI [16]: > 50000 nM | GI50 [17]: 1130 nM | TGI [17]: > 50000 nM | GI50 [18]: 2110 nM | TGI [18]: > 50000 nM | GI50 [19]: 1050 nM | TGI [19]: > 50000 nM | GI50 [20]: 1630 nM | TGI [20]: > 50000 nM | GI50 [21]: 1850 nM | TGI [21]: 12500 nM | GI50 [22]: 855 nM | TGI [22]: 3350 nM | GI50 [23]: 3220 nM | TGI [23]: > 50000 nM | GI50 [24]: 2390 nM | TGI [24]: > 50000 nM | GI50 [25]: 653 nM | TGI [25]: > 50000 nM | GI50 [26]: 1970 nM | TGI [26]: > 50000 nM | GI50 [27]: 2760 nM | TGI [27]: > 50000 nM | GI50 [28]: 674 nM | TGI [28]: > 50000 nM | GI50 [29]: 4700 nM | TGI [29]: > 50000 nM | GI50 [30]: 1470 nM | TGI [30]: > 50000 nM | GI50 [31]: 1950 nM | TGI [31]: > 50000 nM | GI50 [32]: 4140 nM | TGI [32]: > 50000 nM | GI50 [33]: 1510 nM | TGI [33]: > 50000 nM | GI50 [34]: 1420 nM | TGI [34]: > 50000 nM | GI50 [35]: 1210 nM | TGI [35]: > 50000 nM | GI50 [36]: 709 nM | TGI [36]: > 50000 nM | GI50 [37]: 2590 nM | TGI [37]: > 50000 nM | GI50 [38]: 3540 nM | TGI [38]: > 50000 nM | GI50 [39]: 689 nM | TGI [39]: 7190 nM | GI50 [40]: 291 nM | TGI [40]: 1700 nM | GI50 [41]: 1520 nM | TGI [41]: > 50000 nM | GI50 [42]: 790 nM | TGI [42]: 3650 nM | GI50 [43]: 1770 nM | TGI [43]: > 50000 nM | GI50 [44]: 1660 nM | TGI [44]: > 50000 nM | GI50 [45]: 979 nM | TGI [45]: > 50000 nM | GI50 [46]: > 50000 nM | TGI [46]: > 50000 nM | GI50 [47]: 3630 nM | TGI [47]: > 50000 nM | GI50 [48]: 343 nM | TGI [48]: > 50000 nM | GI50 [49]: 446 nM | TGI [49]: 7300 nM | GI50 [50]: 1160 nM | TGI [50]: > 50000 nM | GI50 [51]: 1920 nM | TGI [51]: > 50000 nM | GI50 [52]: 1430 nM | TGI [52]: 11400 nM | GI50 [53]: 1530 nM | TGI [53]: > 50000 nM | GI50 [54]: 1720 nM | TGI [54]: > 50000 nM | GI50 [55]: 2130 nM | TGI [55]: > 50000 nM

CC(=O)c1c(-c2cccc3ccccc23)c(C#N)c(=S)n(C2OC(CO)C(O)C(O)C2O)c1-c1ccccc1 (centres undefined)
TGI [11]: > 100000 nM | GI50 [14]: 5090 nM and 1590 nM | TGI [14]: 23800 nM and 3540 nM | TGI [41]: > 100000 nM
